Like-named read-outs stand apart in the source and are kept apart here.
Columns and labels:
[1] = molecular target: T1, human CA-II (Homo sapiens, UniProt P00918); experiment: Carbonic Anhydrase-II (CA-II) Fluorimetric Assay-IC50 Determination; type: biochemical; conditions: read-out: CAII % Inh @ Min dose; for inhibition at 0.1 µM: CA II Min dose 100 nM; for inhibition at 0.0025 µM: Min dose 2.5 nM
T1 construct: purchased Sigma-Aldrich C6165
How it was run: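 Enzyme activity is read fluorimetrically at 25° C (ex 488 nm / em 538 nm) as the rate at which human CA-II hydrolyses fluorescein diacetate. The buffer is Tris/HCl (50 mM, pH 7.6) with 100 mM Na2SO4 and 0.005% Tween-20. Inhibitors run in duplicate over 11 threefold dilutions, […]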

[2] = molecular target: T1, human CA-II; experiment: Carbonic Anhydrase-II (CA-II) Fluorescence Polarization Tight Binding Assay-Kd Determination; conditions: for Kd: read-out: CA-II Kd; for inhibition at 0.0025 µM: inhibitor concentration 2.5 nM
Method: Assays were conducted in a final volume of 100 μL in 50 mM Tris/HCl (pH 7.6), 100 mM Na2SO4 and 0.005% Tween-20 in a 96-well black assay plate. […] The assay plate was
The Kd binding was calculated using GraphPad Prism and Morrison tight binding ligand equation.

[3] = molecular target: T2, human CA-IV (Homo sapiens, UniProt P22748); experiment: Carbonic Anhydrase-IV (CA-IV) Fluorescence Polarization Assay-IC50 Determination; type: binding; conditions: for inhibition at 0.2 µM: read-out: CA-IV: % Inh @ Min dose; for IC50: read-out: CA-IV IC50
T2 construct: made in house; host or cells: Escherichia coli BL21(DE3)
How it was run: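 IC50 values come from a fluorescence polarization read-out. The CA-IV protein was zinc-supplemented during expression and purified by cation exchange then gel filtration, ending in 25 mM Tris-HCl pH 7.0 with 100 mM NaCl at 7.0 mg/mL.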

T2 sequence (P22748 19-284 limits assumed): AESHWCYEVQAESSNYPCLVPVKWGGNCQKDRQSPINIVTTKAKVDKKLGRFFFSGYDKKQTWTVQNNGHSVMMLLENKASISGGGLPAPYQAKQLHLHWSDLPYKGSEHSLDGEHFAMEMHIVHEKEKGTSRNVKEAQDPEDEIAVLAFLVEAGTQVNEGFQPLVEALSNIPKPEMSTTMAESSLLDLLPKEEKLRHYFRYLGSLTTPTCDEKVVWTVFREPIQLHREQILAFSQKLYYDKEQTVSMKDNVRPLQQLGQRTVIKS

SMILES | Kd [2] | IC50 [3] | inhibition at 0.0025 µM [2] | also measured
CCCCN(C)C(=O)c1nc(Cc2ccccc2)n(-c2ccc(S(N)(=O)=O)cc2)n1 [Example R-3, 1-[4-(aminosulfonyl)phenyl]-5-benzyl-N-butyl-N-methyl-1H-124-triazole-3-carboxamide] | 0.451 nM | 88 nM |  | inhibition at 0.1 µM [1]: 101%; inhibition at 0.2 µM ([3]; CA-IV Min dose 200 nM): 66.4%
CN(CC1CC1)C(=O)c1nc(Cc2ccccc2)n(-c2ccc(S(N)(=O)=O)cc2)n1 [Example R-20, 1-[4-(aminosulfonyl)phenyl]-5-benzyl-N-(cyclopropylmethyl)-N-methyl-1H-124-triazole-3-carboxamide] | 0.805 nM | 355 nM |  | inhibition at 0.1 µM [1]: 100%; inhibition at 0.2 µM ([3]; CA-IV Min dose 200 nM): 65.2%
N#CCCN(C(=O)c1nc(Cc2ccccc2)n(-c2ccc(S(N)(=O)=O)cc2)n1)C1CC1 [Example R-13, 1-[4-(aminosulfonyl)phenyl]-5-benzyl-N-(2-cyanoethyl)-N-cyclopropyl-1H-124-triazole-3-carboxamide] | 0.644 nM | 208 nM |  | inhibition at 0.1 µM [1]: 100%; inhibition at 0.2 µM ([3]; CA-IV Min dose 200 nM): 63.6%
Cc1cc(Cn2cc(C(F)(F)F)nc2-c2ccc(S(N)(=O)=O)cc2)ccc1F [JJJ-2, 4-[1-(4-fluoro-3-methylbenzyl)-4-(trifluoromethyl)-1H-imidazol-2-yl]benzenesulfonamide] | 0.552 nM | 309 nM |  | inhibition at 0.0025 µM [1]: 37%; inhibition at 0.2 µM ([3]; Min dose 200 nM): 45%
CC1(C)COCN1C(=O)c1nc(Cc2ccccc2)n(-c2ccc(S(N)(=O)=O)cc2)n1 [Example R-6, 4-(5-benzyl-3-[(44-dimethyl-13-oxazolidin-3-yl)carbonyl]-1H-124-triazol-1-yl)benzenesulfonamide] | 0.325 nM | 180 nM |  | inhibition at 0.01 µM ([1]; CA II Min dose 10 nM): 97%; inhibition at 0.2 µM ([3]; CA-IV Min dose 200 nM): 58.2%
NS(=O)(=O)c1ccc(-n2nc(C(=O)NCc3n[nH]c4c3CCC4)nc2Cc2ccccc2)cc1 [Example R-11, 1-[4-(aminosulfonyl)phenyl]-5-benzyl-N-(1456-tetrahydrocyclopenta[c]pyrazol-3-ylmethyl)-1H-124-triazole-3-carboxamide] | 0.091 nM | 202 nM |  | inhibition at 0.1 µM [1]: 99%; inhibition at 0.2 µM ([3]; CA-IV Min dose 200 nM): 64.7%
NS(=O)(=O)c1ccc(-c2nc(C(F)(F)F)cn2Cc2cccc(OC(F)F)c2)cc1 [JJJ-4, 4-{1-[3-(difluoromethoxy)benzyl]-4-(trifluoromethyl)-1H-imidazol-2-yl]benzenesulfonamide] | 1.39 nM | 440 nM |  | inhibition at 0.0025 µM [1]: 39%; inhibition at 0.2 µM ([3]; Min dose 200 nM): 29%
Cc1ccccc1Cn1cc(C(F)(F)F)nc1-c1ccc(S(N)(=O)=O)cc1 [JJJ-3, 4-[1-(2-methylbenzyl)-4-(trifluoromethyl)-1H-imidazol-2-yl]benzenesulfonamide] | 0.369 nM | 346 nM |  | inhibition at 0.0025 µM [1]: 47%; inhibition at 0.2 µM ([3]; Min dose 200 nM): 36%
Cc1ccc(C)c(Cn2cc(C(F)(F)F)nc2-c2ccc(S(N)(=O)=O)cc2)c1 [JJJ-1, 4-[1-(25-dimethylbenzyl)-4-(trifluoromethyl)-1H-imidazol-2-yl]benzenesulfonamide] | 0.608 nM | 130 nM |  | inhibition at 0.0025 µM [1]: 46%; inhibition at 0.2 µM ([3]; Min dose 200 nM): 56%
NS(=O)(=O)c1ccc(-n2nc(CNCCc3ccccc3F)nc2Cc2ccccc2)c(F)c1 [Example T-58, 4-[5-benzyl-3-({[2-(2-fluorophenyl)ethyl]amino}methyl)-1H-124-triazol-1-yl]-3-fluorobenzenesulfonamide] |  |  | 51% | 
CC(C)CCNCc1nc(Cc2ccccc2)n(-c2ccc(S(N)(=O)=O)cc2F)n1 [Example T-59, 4-(5-benzyl-3-{[(3-methylbutyl)amino]methyl}-1H-124-triazol-1-yl)-3-fluorobenzenesulfonamide] |  |  | 53% | 
CCCCCN(C)C(=O)c1nc(Cc2ccccc2)n(-c2ccc(S(N)(=O)=O)cc2)n1 [Example R-1, 1-[4-(aminosulfonyl)phenyl]-5-benzyl-N-methyl-N-pentyl-1H-124-triazole-3-carboxamide] | 0.56 nM | 86 nM |  | inhibition at 0.1 µM [1]: 100%; inhibition at 0.2 µM ([3]; CA-IV Min dose 200 nM): 68.6%
CCCN(C)Cc1nc(Cc2ccccc2)n(-c2ccc(S(N)(=O)=O)cc2F)n1 [Example T-42, 4-(5-benzyl-3-{[methyl(propyl)amino]methyl}-1H-124-triazol-1-yl)-3-fluorobenzenesulfonamide] |  |  | 42% | 
CC(Cn1cccn1)NCc1nc(Cc2ccccc2)n(-c2ccc(S(N)(=O)=O)cc2F)n1 (centres unmarked) [Example T-72, 4-[5-benzyl-3-({[1-methyl-2-(1H-pyrazol-1-yl)ethyl]amino}methyl)-1H-124-triazol-1-yl]-3-fluorobenzenesulfonamide] |  |  | 70% | 
NS(=O)(=O)c1ccc(-n2nc(CN[C@H]3CCCC[C@H]3O)nc2Cc2ccccc2)c(F)c1 [Example T-53, 4-[5-benzyl-3-({[(1S2R)-2-hydroxycyclohexyl]amino}methyl)-1H-124-triazol-1-yl]-3-fluorobenzenesulfonamide] |  |  | 75% | 
NS(=O)(=O)c1ccc(-n2nc(CNCCOc3ccccc3)nc2Cc2ccccc2)c(F)c1 [Example T-64, 4-(5-benzyl-3-{[(2-phenoxyethyl)amino]methyl}-1H-124-triazol-1-yl)-3-fluorobenzenesulfonamide] |  |  | 47% | 
CN(CCn1cccn1)Cc1nc(Cc2ccccc2)n(-c2ccc(S(N)(=O)=O)cc2F)n1 [Example T-38, 4-[5-benzyl-3-({methyl[2-(1H-pyrazol-1-yl)ethyl]amino}methyl)-1H-124-triazol-1-yl]-3-fluorobenzenesulfonamide] |  |  | 54% | 
C[C@@H]1COCCN1Cc1nc(Cc2ccccc2)n(-c2ccc(S(N)(=O)=O)cc2F)n1 [Example T-41, 4-(5-benzyl-3-{[(3R)-3-methylmorpholin-4-yl]methyl}-1H-124-triazol-1-yl)-3-fluorobenzenesulfonamide] |  |  | 58% | 
NS(=O)(=O)c1ccc(-n2nc(CNCc3ccc(F)cc3)nc2Cc2ccccc2)c(F)c1 [Example T-56, 4-(5-benzyl-3-{[(4-fluorobenzyl)amino]methyl}-1H-124-triazol-1-yl)-3-fluorobenzenesulfonamide] |  |  | 50% | 
NS(=O)(=O)c1ccc(-n2nc(CNCC3(c4ccccc4)CC3)nc2Cc2ccccc2)c(F)c1 [Example T-45, 4-[5-benzyl-3-({[(1-phenylcyclopropyl)methyl]amino}methyl)-1H-124-triazol-1-yl]-3-fluorobenzenesulfonamide] |  |  | 53% | 
NS(=O)(=O)c1ccc(-n2nc(CN3CCC[C@@H](O)C3)nc2Cc2ccccc2)c(F)c1 [Example T-39, 4-(5-benzyl-3-{[(3R)-3-hydroxypiperidin-1-yl]methyl}-1H-124-triazol-1-yl)-3-fluorobenzenesulfonamide] |  |  | 65% | 
NS(=O)(=O)c1ccc(-n2nc(CN[C@H](CO)Cc3ccccc3)nc2Cc2ccccc2)c(F)c1 [Example T-44, 4-[5-benzyl-3-({[(1S)-1-benzyl-2-hydroxyethyl]amino}methyl)-1H-124-triazol-1-yl]-3-fluorobenzenesulfonamide] |  |  | 49% | 
CCC(COC)NCc1nc(Cc2ccccc2)n(-c2ccc(S(N)(=O)=O)cc2F)n1 (centres unmarked) [Example T-70, 4-[5-benzyl-3-({[1-(methoxymethyl)propyl]amino}methyl)-1H-124-triazol-1-yl]-3-fluorobenzenesulfonamide] |  |  | 89% | 
NS(=O)(=O)c1ccc(-n2nc(CN[C@@H]3C[C@H]4CC[C@@H]3C4)nc2Cc2ccccc2)c(F)c1 [Example T-67] |  |  | 47% | 
C[C@@H](NCc1nc(Cc2ccccc2)n(-c2ccc(S(N)(=O)=O)cc2F)n1)[C@@H](O)c1ccccc1 [Example T-43, 4-[5-benzyl-3-({[(1R2S)-2-hydroxy-1-methyl-2-phenylethyl]amino}methyl)-1H-124-triazol-1-yl]-3-fluorobenzenesulfonamide] |  |  | 41% | 
CCC(NCc1nc(Cc2ccccc2)n(-c2ccc(S(N)(=O)=O)cc2F)n1)c1ccccc1 (centres unmarked) [Example T-75, 4-(5-benzyl-3-{[(1-phenylpropyl)amino]methyl}-1H-124-triazol-1-yl)-3-fluorobenzenesulfonamide] |  |  | 51% | 
COC[C@@H](NCc1nc(Cc2ccccc2)n(-c2ccc(S(N)(=O)=O)cc2F)n1)c1ccccc1 [Example T-47, 4-[5-benzyl-3-({[(1S)-2-methoxy-1-phenylethyl]amino}methyl)-1H-124-triazol-1-yl]-3-fluorobenzenesulfonamide] |  |  | 41% | 
NS(=O)(=O)c1ccc(-n2nc(CNCc3ccccc3F)nc2Cc2ccccc2)c(F)c1 [Example T-74, 4-(5-benzyl-3-{[(2-fluorobenzyl)amino]methyl}-1H-124-triazol-1-yl)-3-fluorobenzenesulfonamide] |  |  | 45% | 
NS(=O)(=O)c1ccc(-n2nc(CNCCc3cccc(F)c3)nc2Cc2ccccc2)c(F)c1 [Example T-48, 4-[5-benzyl-3-({[2-(3-fluorophenyl)ethyl]amino}methyl)-1H-124-triazol-1-yl]-3-fluorobenzenesulfonamide] |  |  | 50% | 
